Source: patent US20210115104A1, “AMYLIN ANALOGUES” (Zealand Pharma A/S, priority 2015, published 2021)
*1 amine or outer side, *2 acyl side, *3 side chain or, on linkers, in order; H or OH if unused. Where a SMILES comes first, the peptide text is derived from it. Bridges are numbered along the chain shown (N, C = ends). [ ]: non-standard residue; d: D form. The star is where a group is joined. C20 diacid = O=C(O)CCCCCCCCCCCCCCCCCCC(=O)*; γGlu = O=C(O)[C@H](CCC(=O)[*:2])N[*:1]; Hyp = O=C(O)[C@@H]1C[C@@H](O)CN1; NMeI = CC[C@H](C)[C@H](NC)C(=O)O; Aad = N[C@@H](CCCC(=O)O)C(=O)O; Sar = CNCC(=O)O

Tests used:
[1] = target: T1, human calcitonin receptor (hCTR2) (Homo sapiens, UniProt P30988); assay: hCTR2 cAMP assay (AlphaScreen) in COS7 cells; type: cell-based; conditions: cAMP induction, COS7 cells expressing hCTR2; Table 1; read-out: hCTR2 EC50
T1 construct: expressed in transfected cells
T1 sequence (P30988 25-474): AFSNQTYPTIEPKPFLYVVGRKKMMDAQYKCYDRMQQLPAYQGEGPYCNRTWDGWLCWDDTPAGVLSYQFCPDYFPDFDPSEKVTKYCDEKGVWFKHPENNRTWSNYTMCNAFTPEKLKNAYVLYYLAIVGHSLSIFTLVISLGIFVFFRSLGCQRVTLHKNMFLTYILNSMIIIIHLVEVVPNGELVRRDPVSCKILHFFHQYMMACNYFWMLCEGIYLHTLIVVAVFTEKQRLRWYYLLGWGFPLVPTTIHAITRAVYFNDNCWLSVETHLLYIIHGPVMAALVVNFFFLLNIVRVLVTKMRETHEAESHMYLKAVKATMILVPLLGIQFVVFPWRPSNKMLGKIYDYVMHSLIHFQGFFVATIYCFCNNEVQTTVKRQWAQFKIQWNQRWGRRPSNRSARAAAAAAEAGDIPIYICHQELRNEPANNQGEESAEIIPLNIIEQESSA
Method in brief: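 cAMP induction, read by AlphaScreen after lysis, gives EC50 values via 4PL curve fitting. Peptides were applied at rising concentrations for 15 min at 37 °C, with IBMX and 0.1% casein in HEPES-buffered Tyrode pH 7.4, to COS7 cells (no endogenous RAMPs) stably expressing human CTR2.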

[2] = target: T2, human amylin receptor 3 (hAMYR3), hCTR2 co-expressed with hRAMP3 (Homo sapiens, UniProt O60896+P30988); assay: hAMYR3 cAMP assay (AlphaScreen) in COS7 cells; type: cell-based; conditions: cAMP induction, COS7 cells expressing hAMYR3; Table 1; read-out: hAMYR3 EC50
T2 construct: expressed in transfected cells
T2 sequence (P30988 25-474): T1 sequence (P30988 25-474)
T2 sequence (O60896 24-148 partner): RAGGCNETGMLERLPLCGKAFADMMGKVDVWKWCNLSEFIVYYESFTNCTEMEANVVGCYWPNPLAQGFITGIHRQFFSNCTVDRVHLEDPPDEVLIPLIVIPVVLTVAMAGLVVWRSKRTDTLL
Method in brief: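 EC50 values derive from 4PL curve fits of cAMP (AlphaScreen) in lysates of RAMP-naive COS7 cells stably carrying hCTR2 plus hRAMP3. Peptide dilution series were applied for 15 min at 37 °C in pH 7.4 Tyrode buffer containing 100 µM IBMX and 0.1% casein.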

[3] = Assessment of chemical stability (RP-HPLC normalized purity); type: physicochemical; conditions: 7 days, 40° C., Table 1; for Normalized purity after 7 days, 40° C., pH 4: pH 4, 0.2 mg/ml; for Normalized purity after 7 days, 40° C., pH 6: pH 6, 0.2 mg/ml; for Normalized purity after 7 days, 40° C., pH 7.5: pH 7.5, 0.2 mg/ml; for Normalized purity after 7 days, 40° C., pH 9: pH 9, 0.2 mg/ml
Method in brief: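 Purity after 7 days at 40° C is expressed relative to T=0 (set to 100) for each pH. Samples at 0.2 mg/ml, pH 4, 6, 7.5 or 9, analyzed by RP-HPLC with UV 220 nm on C8 (ammonium formate) or C18 (TFA) gradients.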

Compound | EC50 [1] | EC50 [2] | Normalized purity after 7 days, 40° C., pH 4 [3] | Normalized purity after 7 days, 40° C., pH 6 [3] | Normalized purity after 7 days, 40° C., pH 7.5 [3] | Normalized purity after 7 days, 40° C., pH 9 [3]
CC[C@H](C)[C@@H](C(=O)N[C@@H](CC(C)C)C(=O)N[C@@H](CO)C(=O)N[C@@H](CO)C(=O)N[C@H](C(=O)N[C@@H](CCC(=O)O)C(=O)N[C@H](C(=O)NCC(=O)N[C@@H](CO)C(=O)N[C@@H](CC(N)=O)C(=O)N[C@H](C(=O)N1CCC[C@H]1C(N)=O)[C@@H](C)O)C(C)C)[C@@H](C)O)N(C)C(=O)[C@H](C)NC(=O)CN(C)C(=O)[C@H](Cc1ccccc1)NC(=O)[C@H](CO)NC(=O)[C@H](CO)NC(=O)[C@H](CCCNC(=N)N)NC(=O)[C@H](CCC(N)=O)NC(=O)[C@H](CC(C)C)NC(=O)[C@H](Cc1ccccc1)NC(=O)[C@H](CC(=O)O)NC(=O)[C@H](C)NC(=O)[C@H](CC(C)C)NC(=O)[C@H](CCCNC(=N)N)NC(=O)[C@H](CCC(N)=O)NC(=O)[C@@H](NC(=O)[C@H](C)NC(=O)[C@@H]1CSSC[C@H](NC(=O)[C@H](CCCNC(=N)N)NC(=O)CC[C@H](NC(=O)CCCCCCCCCCCCCCCCCCC(=O)O)C(=O)O)C(=O)N[C@@H](CC(N)=O)C(=O)N[C@@H]([C@@H](C)O)C(=O)N[C@@H](C)C(=O)N[C@@H]([C@@H](C)O)C(=O)N1)[C@@H](C)O [Compound 65, [19CD]-isoGlu-R-C( )-NTAT-C( )-ATQRLADFLQRSSF-Gly(Me)-A-Ile(Me)-LSSTEVGSNTP-NH2] ({C20 diacid-γGlu}-RCNTATCATQRLADFLQRSSF[Sar]A[NMeI]LSSTEVGSNTP-NH2; disulfide 2-7) | 140 pM | 260 pM | A (A = >90%) | A (A = >90%) | A (A = >90%) | A (A = >90%)
CC[C@H](C)[C@@H](C(=O)N[C@@H](CC(C)C)C(=O)N[C@@H](CO)C(=O)N[C@@H](CO)C(=O)N[C@H](C(=O)N[C@@H](CCC(=O)O)C(=O)N[C@H](C(=O)NCC(=O)N[C@@H](CO)C(=O)N[C@@H](CO)C(=O)N[C@H](C(=O)N1C[C@H](O)C[C@H]1C(N)=O)[C@@H](C)O)C(C)C)[C@@H](C)O)N(C)C(=O)[C@H](C)NC(=O)CN(C)C(=O)[C@H](Cc1ccccc1)NC(=O)[C@H](CO)NC(=O)[C@H](CO)NC(=O)[C@H](CCCNC(=N)N)NC(=O)[C@H](CCC(N)=O)NC(=O)[C@H](CC(C)C)NC(=O)[C@H](Cc1ccccc1)NC(=O)[C@H](Cc1c[nH]cn1)NC(=O)[C@H](C)NC(=O)[C@H](CC(C)C)NC(=O)[C@H](CCCNC(=N)N)NC(=O)[C@H](CCC(N)=O)NC(=O)[C@@H](NC(=O)[C@H](C)NC(=O)[C@@H]1CSSC[C@H](NC(=O)[C@H](CCCNC(=N)N)NC(=O)CC[C@H](NC(=O)CCCCCCCCCCCCCCCCCCC(=O)O)C(=O)O)C(=O)N[C@@H](CC(N)=O)C(=O)N[C@@H]([C@@H](C)O)C(=O)N[C@@H](C)C(=O)N[C@@H]([C@@H](C)O)C(=O)N1)[C@@H](C)O [Compound 69, [19CD]-isoGlu-R-C( )-NTAT-C( )-ATQRLAHFLQRSSF-Gly(Me)-A-Ile(Me)-LSSTEVGSST-Hyp-NH2] ({C20 diacid-γGlu}-RCNTATCATQRLAHFLQRSSF[Sar]A[NMeI]LSSTEVGSST[Hyp]-NH2; disulfide 2-7) | 120 pM | 170 pM | A (A = >90%) | A (A = >90%) | B (B = 70-90%) | B (B = 70-90%)
CC[C@H](C)[C@@H](C(=O)N[C@@H](CC(C)C)C(=O)N[C@@H](CO)C(=O)N[C@@H](CO)C(=O)N[C@H](C(=O)N[C@@H](CCC(=O)O)C(=O)N[C@H](C(=O)NCC(=O)N[C@@H](CO)C(=O)NCC(=O)N[C@H](C(=O)N1CCC[C@H]1C(N)=O)[C@@H](C)O)C(C)C)[C@@H](C)O)N(C)C(=O)[C@H](C)NC(=O)CN(C)C(=O)[C@H](Cc1ccccc1)NC(=O)[C@H](CO)NC(=O)[C@H](CO)NC(=O)[C@H](CCCNC(=N)N)NC(=O)[C@H](CCC(N)=O)NC(=O)[C@H](CC(C)C)NC(=O)[C@H](Cc1ccccc1)NC(=O)[C@H](CC(=O)O)NC(=O)[C@H](C)NC(=O)[C@H](CC(C)C)NC(=O)[C@H](CCCNC(=N)N)NC(=O)[C@H](CCC(N)=O)NC(=O)[C@@H](NC(=O)[C@H](C)NC(=O)[C@@H]1CSSC[C@H](NC(=O)[C@H](CCCNC(=N)N)NC(=O)CC[C@H](NC(=O)CCCCCCCCCCCCCCCCCCC(=O)O)C(=O)O)C(=O)N[C@@H](CC(N)=O)C(=O)N[C@@H]([C@@H](C)O)C(=O)N[C@@H](C)C(=O)N[C@@H]([C@@H](C)O)C(=O)N1)[C@@H](C)O [Compound 80, [19CD]-isoGlu-R-C( )-NTAT-C( )-ATQRLADFLQRSSF-Gly(Me)-A-Ile(Me)-LSSTEVGSGTP-NH2] ({C20 diacid-γGlu}-RCNTATCATQRLADFLQRSSF[Sar]A[NMeI]LSSTEVGSGTP-NH2; disulfide 2-7) | 130 pM | 280 pM | A (A = >90%) | A (A = >90%) | A (A = >90%) | A (A = >90%)

More lines, now with the values ahead:

EC50 [1] | EC50 [2] | Normalized purity after 7 days, 40° C., pH 4 [3] | Normalized purity after 7 days, 40° C., pH 6 [3] | Normalized purity after 7 days, 40° C., pH 7.5 [3] | Normalized purity after 7 days, 40° C., pH 9 [3] | Compound
100 pM | 230 pM | A (A = >90%) | A (A = >90%) | A (A = >90%) | A (A = >90%) | CC[C@H](C)[C@@H](C(=O)N[C@@H](CC(C)C)C(=O)N[C@@H](CO)C(=O)N[C@@H](CO)C(=O)N[C@H](C(=O)N[C@@H](CCC(=O)O)C(=O)N[C@H](C(=O)NCC(=O)N[C@@H](CO)C(=O)NCC(=O)N[C@H](C(=O)N1C[C@H](O)C[C@H]1C(N)=O)[C@@H](C)O)C(C)C)[C@@H](C)O)N(C)C(=O)[C@H](C)NC(=O)CN(C)C(=O)[C@H](Cc1ccccc1)NC(=O)[C@H](CO)NC(=O)[C@H](CO)NC(=O)[C@H](CCCNC(=N)N)NC(=O)[C@H](CCC(N)=O)NC(=O)[C@H](CC(C)C)NC(=O)[C@H](Cc1ccccc1)NC(=O)[C@H](CC(=O)O)NC(=O)[C@H](C)NC(=O)[C@H](CC(C)C)NC(=O)[C@H](CCCNC(=N)N)NC(=O)[C@H](CCC(N)=O)NC(=O)[C@@H](NC(=O)[C@H](C)NC(=O)[C@@H]1CSSC[C@H](NC(=O)[C@H](CCCNC(=N)N)NC(=O)CC[C@H](NC(=O)CCCCCCCCCCCCCCCCCCC(=O)O)C(=O)O)C(=O)N[C@@H](CC(N)=O)C(=O)N[C@@H]([C@@H](C)O)C(=O)N[C@@H](C)C(=O)N[C@@H]([C@@H](C)O)C(=O)N1)[C@@H](C)O [Compound 81, [19CD]-isoGlu-R-C( )-NTAT-C( )-ATQRLADFLQRSSF-Gly(Me)-A-Ile(Me)-LSSTEVGSGT-Hyp-NH2] ({C20 diacid-γGlu}-RCNTATCATQRLADFLQRSSF[Sar]A[NMeI]LSSTEVGSGT[Hyp]-NH2; disulfide 2-7)
100 pM | 150 pM | A (A = >90%) | A (A = >90%) | A (A = >90%) | A (A = >90%) | CC[C@H](C)[C@@H](C(=O)N[C@@H](CC(C)C)C(=O)N[C@@H](CO)C(=O)N[C@@H](CO)C(=O)N[C@H](C(=O)N[C@@H](CCC(=O)O)C(=O)N[C@H](C(=O)NCC(=O)N[C@@H](CO)C(=O)N[C@@H](CC(N)=O)C(=O)N[C@H](C(=O)N1C[C@H](O)C[C@H]1C(N)=O)[C@@H](C)O)C(C)C)[C@@H](C)O)N(C)C(=O)[C@H](C)NC(=O)CN(C)C(=O)[C@H](Cc1ccccc1)NC(=O)[C@H](CO)NC(=O)[C@H](CO)NC(=O)[C@H](CCCNC(=N)N)NC(=O)[C@H](CCC(N)=O)NC(=O)[C@H](CC(C)C)NC(=O)[C@H](Cc1ccccc1)NC(=O)[C@H](CCCC(=O)O)NC(=O)[C@H](C)NC(=O)[C@H](CC(C)C)NC(=O)[C@H](CCCNC(=N)N)NC(=O)[C@H](CCC(N)=O)NC(=O)[C@@H](NC(=O)[C@H](C)NC(=O)[C@@H]1CSSC[C@H](NC(=O)[C@H](CCCNC(=N)N)NC(=O)CC[C@H](NC(=O)CCCCCCCCCCCCCCCCCCC(=O)O)C(=O)O)C(=O)N[C@@H](CC(N)=O)C(=O)N[C@@H]([C@@H](C)O)C(=O)N[C@@H](C)C(=O)N[C@@H]([C@@H](C)O)C(=O)N1)[C@@H](C)O [Compound 86, [19CD]-isoGlu-R-C( )-NTAT-C( )-ATQRLA-Aad-FLQRSSF-Gly(Me)-A-Ile(Me)-LSSTEVGSNT-Hyp-NH2] ({C20 diacid-γGlu}-RCNTATCATQRLA[Aad]FLQRSSF[Sar]A[NMeI]LSSTEVGSNT[Hyp]-NH2; disulfide 2-7)
